From patent publication US9227971B2, “Pyrazolo[1,5-a]pyrimidine compounds as mTOR inhibitors” (Merck Sharp & Dohme Corp., priority 2010, dated 2016)

What was measured:
[1] = system: phosphorylated 4E-BP1 Thr37/46 (p4E-BP1 Thr37/46), mTORC1 activity, PC3 cells; assay: mTOR target engagement assay, immunofluorescent cell-based, p4E-BP1 Thr37/46 readout (mTORC1 activity); details: Homo sapiens, PC-3, PC3 cells; read-out: p4E-BP1 Thr37/46 IC50
Procedure, shortened: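 Seed PC3 cells overnight; treat with compound dilutions for ninety minutes at 37° C; fix with glyoxal and block; stain with anti-p4E-BP1 Thr37/46 overnight at 4° C, then fluorescent secondary; read fluorescence and fit IC50 against DMSO-only controls.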

[2] = system: phosphorylated AKT Ser473 (pAKT S473), mTORC2 activity, PC3 cells; assay: mTOR target engagement assay, immunofluorescent cell-based, pAKT S473 readout (mTORC2 activity); details: Homo sapiens, PC-3, PC3 cells
Procedure, shortened: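 After blocking, cells were stained overnight at 4 °C with anti-pAKT S473 antibody, then a fluorescent secondary; inhibition was read as reduced fluorescence intensity.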

Row | Compound | IC50 [1] [nM] | IC50 [2] [nM]
1 | CC(=O)c1c([C@@H]2C[C@H]3CC[C@@H](C2)N3C(=O)c2ncn[nH]2)nc2c(-c3cnc(C(C)(C)O)c(F)c3)cnn2c1N [Compound 7.98, 1-(5-((1R,3s,5S)-8-(1H-1,2,4-triazole-5-carbonyl)-8-azabicyclo[3.2.1]octan-3-yl)-7-amino-3-(5-fluoro-6-(2-hydroxypropan-2-yl)pyridin-3-yl)pyrazolo[1,5-a]pyrimidin-6-yl)ethanone] | 1 to 100 | 1 to 100
2 | CC(=O)c1c(N2C3CCC2CN(C(=O)c2nnc[nH]2)C3)nc2c(-c3ccc(-c4ccccc4)nc3)cnn2c1N [Compound 8.5, 1-(5-(3-(4H-1,2,4-triazole-3-carbonyl)-3,8-diazabicyclo[3.2.1]octan-8-yl)-7-amino-3-(6-phenylpyridin-3-yl)pyrazolo[1,5-a]pyrimidin-6-yl)ethanone] | 1000 to 10000 | 100 to 1000
3 | CC(=O)c1c(N2C3CCC2CN(C(=O)[C@@H](C)O)C3)nc2c(-c3ccc(-c4ccccc4)nc3)cnn2c1N [Compound 8.6, (2R)-1-(8-(6-acetyl-7-amino-3-(6-phenylpyridin-3-yl)pyrazolo[1,5-a]pyrimidin-5-yl)-3,8-diazabicyclo[3.2.1]octan-3-yl)-2-hydroxypropan-1-one] | 1000 to 10000 | 100 to 1000
4 | CC(=O)c1c(N2C3CCC2CN(C(=O)CO)C3)nc2c(-c3ccc(-c4ccccc4)nc3)cnn2c1N [Compound 8.7, 1-(8-(6-acetyl-7-amino-3-(6-phenylpyridin-3-yl)pyrazolo[1,5-a]pyrimidin-5-yl)-3,8-diazabicyclo[3.2.1]octan-3-yl)-2-hydroxyethanone] | 1000 to 10000 | 100 to 1000
5 | CC(=O)c1c([C@@H]2C[C@H]3CC[C@@H](C2)N3C(=O)c2nnc[nH]2)nc2c(-c3ccc(N4NCCC4=O)nc3)cnn2c1N [Compound 8.19, 2-(5-(5-((1R,3s,5S)-8-(4H-1,2,4-triazole-3-carbonyl)-8-azabicyclo[3.2.1]octan-3-yl)-6-acetyl-7-aminopyrazolo[1,5-a]pyrimidin-3-yl)pyridin-2-yl)pyrazolidin-3-one] | 100 to 1000 | 100 to 1000
6 | CC(=O)c1c([C@]2(O)C[C@H]3CC[C@@H](C2)N3C(=O)c2nnc[nH]2)nc2c(-c3ccc(-c4ccccc4)nc3)cnn2c1N [Compound 8.21, 1-(7-amino-5-((1R,3r,5S)-3-hydroxy-8-(4H-1,2,4-triazole-3-carbonyl)-8-azabicyclo[3.2.1]octan-3-yl)-3-(6-phenylpyridin-3-yl)pyrazolo[1,5-a]pyrimidin-6-yl)ethanone] | 1000 to 10000 | 1000 to 10000
7 | CS(=O)(=O)c1c([C@]2(O)C[C@H]3CC[C@@H](C2)N3C(=O)c2nnc[nH]2)nc2c(-c3ccc(-c4ccccc4)nc3)cnn2c1N [Compound 8.22, ((1R,3r,5S)-3-(7-amino-6-(methylsulfonyl)-3-(6-phenylpyridin-3-yl)pyrazolo[1,5-a]pyrimidin-5-yl)-3-hydroxy-8-azabicyclo[3.2.1]octan-8-yl)(4H-1,2,4-triazol-3-yl)methanone] | 1000 to 10000 | 100 to 1000
8 | Nc1cc([C@]2(O)C[C@H]3CC[C@@H](C2)N3C(=O)c2nnc[nH]2)nc2c(-c3ccc(-c4ccccc4)nc3)cnn12 [Compound 8.23, ((1R,3r,5S)-3-(7-amino-3-(6-phenylpyridin-3-yl)pyrazolo[1,5-a]pyrimidin-5-yl)-3-hydroxy-8-azabicyclo[3.2.1]octan-8-yl)(4H-1,2,4-triazol-3-yl)methanone] | 1000 to 10000 | 1000 to 10000
9 | Nc1c(C2CC2)c([C@]2(O)C[C@H]3CC[C@@H](C2)N3C(=O)c2nnc[nH]2)nc2c(-c3ccc(-c4ccccc4)nc3)cnn12 [Compound 8.24, ((1R,3r,5S)-3-(7-amino-6-cyclopropyl-3-(6-phenylpyridin-3-yl)pyrazolo[1,5-a]pyrimidin-5-yl)-3-hydroxy-8-azabicyclo[3.2.1]octan-8-yl)(4H-1,2,4-triazol-3-yl)methanone] | 1000 to 10000 | 100 to 1000
10 | Nc1c(C2CC2)c([C@@]2(O)C[C@H]3CC[C@@H](C2)N3C(=O)c2nnc[nH]2)nc2c(-c3ccc(-c4ccccc4)nc3)cnn12 [Compound 8.25, ((1R,3s,5S)-3-(7-amino-6-cyclopropyl-3-(6-phenylpyridin-3-yl)pyrazolo[1,5-a]pyrimidin-5-yl)-3-hydroxy-8-azabicyclo[3.2.1]octan-8-yl)(4H-1,2,4-triazol-3-yl)methanone] | 1000 to 10000 | 100 to 1000
11 | CC(=O)c1c(C2CC3COCC(C2)N3C(=O)c2nc[nH]n2)nc2c(-c3cnn(-c4ccccc4)c3)cnn2c1N (stereo not shown) [Compound 8.26, 1-(5-(9-(1H-1,2,4-triazole-3-carbonyl)-3-oxa-9-azabicyclo[3.3.1]nonan-7-yl)-7-amino-3-(1-phenyl-1H-pyrazol-4-yl)pyrazolo[1,5-a]pyrimidin-6-yl)ethanone] | 100 to 1000 | 1 to 100
12 | CC(=O)c1c(C2CC3COCC(C2)N3C(=O)c2nc[nH]n2)nc2c(-c3ccc(-c4ccccc4)nc3)cnn2c1N (stereo not shown) [Compound 8.27, 1-(5-(9-(1H-1,2,4-triazole-3-carbonyl)-3-oxa-9-azabicyclo[3.3.1]nonan-7-yl)-7-amino-3-(6-phenylpyridin-3-yl)pyrazolo[1,5-a]pyrimidin-6-yl)ethanone] | 100 to 1000 | 1 to 100
13 | CC(=O)c1c(C2CC3COCC(C2)N3C(=O)CO)nc2c(-c3ccc(-c4ccccc4)nc3)cnn2c1N (stereo not shown) [Compound 8.28, 1-(7-(6-acetyl-7-amino-3-(6-phenylpyridin-3-yl)pyrazolo[1,5-a]pyrimidin-5-yl)-3-oxa-9-azabicyclo[3.3.1]nonan-9-yl)-2-hydroxyethanone] | 100 to 1000 | 100 to 1000
14 | CS(=O)(=O)c1c(C2CC3COCC(C2)N3C(=O)c2nc[nH]n2)nc2c(-c3ccc(-c4ccccc4)nc3)cnn2c1N (stereo not shown) [Compound 8.29, (7-(7-amino-6-(methylsulfonyl)-3-(6-phenylpyridin-3-yl)pyrazolo[1,5-a]pyrimidin-5-yl)-3-oxa-9-azabicyclo[3.3.1]nonan-9-yl)(1H-1,2,4-triazol-3-yl)methanone] | 1 to 100 | 1 to 100
15 | CC(=O)c1c(C2CC3CCCC(C2)N3C(=O)c2nc[nH]n2)nc2c(-c3ccc(-c4ccccc4)nc3)cnn2c1N (stereo not shown) [Compound 8.33, 1-(5-(9-(1H-1,2,4-triazole-3-carbonyl)-9-azabicyclo[3.3.1]nonan-3-yl)-7-amino-3-(6-phenylpyridin-3-yl)pyrazolo[1,5-a]pyrimidin-6-yl)ethanone] | 100 to 1000 | 100 to 1000
16 | CC(=O)c1c([C@@H]2C[C@H]3CC(O)[C@@H](C2)N3C(=O)c2nc[nH]n2)nc2c(-c3ccc(-c4ccccc4)nc3)cnn2c1N (stereo partly drawn) [Compound 8.34, 1-(7-amino-5-((1S,3R,5R)-6-hydroxy-8-(1H-1,2,4-triazole-3-carbonyl)-8-azabicyclo[3.2.1]octan-3-yl)-3-(6-phenylpyridin-3-yl)pyrazolo[1,5-a]pyrimidin-6-yl)ethanone] | 1 to 100 | 1 to 100
17 | CC(=O)c1c([C@@H]2C[C@H]3CC(O)[C@@H](C2)N3C(=O)CO)nc2c(-c3ccc(-c4ccccc4)nc3)cnn2c1N (stereo partly drawn) [Compound 8.35, 1-((1S,3R,5R)-3-(6-acetyl-7-amino-3-(6-phenylpyridin-3-yl)pyrazolo[1,5-a]pyrimidin-5-yl)-6-hydroxy-8-azabicyclo[3.2.1]octan-8-yl)-2-hydroxyethanone] | 1 to 100 | 1 to 100
18 | CC(=O)c1c(C2CC3CS(=O)(=O)CC(C2)N3C(=O)c2nc[nH]n2)nc2c(-c3ccc(-c4ccccc4)nc3)cnn2c1N (stereo not drawn) [Compound 8.38, endo/exo-7-[6-acetyl-7-amino-3-(6-phenyl-3-pyridinyl)pyrazolo[1,5-a]pyrimidin-5-yl]-9-(4h-1,2,4-triazol-3-ylcarbonyl)-3-thia-9-azabicyclo[3.3.1]nonane, 3,3-dioxide] | 100 to 1000 | 100 to 1000
19 | Nc1c(C2(O)CC2)c([C@@H]2C[C@H]3CC[C@@H](C2)N3C(=O)c2nc[nH]n2)nc2c(-c3ccc(-c4ccccc4)nc3)cnn12 [Compound 8.39] | 1000 to 10000 | 1000 to 10000
20 | NC(=O)c1c([C@@H]2C[C@H]3CC[C@@H](C2)N3C(=O)c2nc[nH]n2)nc2c(-c3ccc(-c4ccccc4)nc3)cnn2c1N [Compound 8.40] | 1 to 100 | 1 to 100
21 | CNc1c(S(C)(=O)=O)c([C@@H]2C[C@H]3CC[C@@H](C2)N3C(=O)c2nnc[nH]2)nc2c(-c3ccc(-c4ccccc4)nc3)cnn12 [Compound 8.41, ((1R,3s,5S)-3-(7-(methylamino)-6-(methylsulfonyl)-3-(6-phenylpyridin-3-yl)pyrazolo[1,5-a]pyrimidin-5-yl)-8-azabicyclo[3.2.1]octan-8-yl)(4H-1,2,4-triazol-3-yl)methanone] | 100 to 1000 | 1 to 100
22 | CS(=O)(=O)c1c([C@@H]2C[C@H]3CC[C@@H](C2)N3C(=O)c2nnc[nH]2)nc2c(-c3ccc(CO)c(F)c3)cnn2c1N [Compound 8.42, ((1R,3s,5S)-3-(7-amino-3-(3-fluoro-4-(hydroxymethyl)phenyl)-6-(methylsulfonyl)pyrazolo[1,5-a]pyrimidin-5-yl)-8-azabicyclo[3.2.1]octan-8-yl)(4H-1,2,4-triazol-3-yl)methanone] | 1 to 100 | 1 to 100
23 | CS(=O)(=O)c1c([C@@H]2C[C@H]3CC[C@@H](C2)N3C(=O)CO)nc2c(-c3ccc(CO)c(F)c3)cnn2c1N [Compound 8.43, 1-((1R,3s,5S)-3-(7-amino-3-(3-fluoro-4-(hydroxymethyl)phenyl)-6-(methylsulfonyl)pyrazolo[1,5-a]pyrimidin-5-yl)-8-azabicyclo[3.2.1]octan-8-yl)-2-hydroxyethanone] | 100 to 1000 | 100 to 1000
